Values quoted from earlier work as cited in patent US20190177430A1, “Methods of Treating Cancers With Chemotherapy With Reduced Toxicity” (The Wistar Institute of Anatomy and Biology, priority 2016, published 2019).

Conditions: dosages of 250 mg/m^2

Which “Doxorubicin-induced cardiac dysfunction, share of treated patients” value does the source give for `COc1cccc2c1C(=O)c1c(O)c3c(c(O)c1C2=O)C[C@@](O)(C(=O)CO)C[C@@H]3O[C@H]1C[C@H](N)[C@H](O)[C@H](C)O1` [Doxorubicin, (7S,9S)-7-[(2R,4S,5S,6S)-4-amino-5-hydroxy-6-methyloxan-2-yl]oxy-6,9,11-trihydroxy-9-(2-hydroxyacetyl)-4-methoxy-8,10-dihydro-7H-tetracene-5,12-dione] here?
Its value is 9%.
